We go through 2 compounds from PMC6627698, “Redesigning Arenicin-1, an Antimicrobial Peptide from the Marine Polychaeta Arenicola marina, by Strand Rearrangement or Branching, Substitution of Specific Residues, and Backbone Linearization or Cyclization” (Marine Drugs, 2019).

The subject of one assay is E. coli ATCC 25922. The class given is cell-based, Escherichia coli. The settings on record: ATCC 25922, 18 h. From the text:
(§1) E. coli ML35p, Listeria monocytogenes EGD, methicillin-resistant Staphylococcus aureus (MRSA) ATCC 33591 were kindly provided by Prof. Robert Lehrer (University of California, Los Angeles, CA, USA); E. coli ATCC 25922, E. coli M15, Pseudomonas aeruginosa ATCC 27853, S. aureus ATCC 25923 were provided by Dr. Elena Ermolenko (Institute of Experimental Medicine, St-Petersburg, Russia); drug-resistant clinical isolates were provided by Prof. Gennadiy Afinogenov (Saint Petersburg State University, Russia); S. aureus 710A has been described previously. The following clinical isolates of bacteria were used: P.s aeruginosa resistant to aztreonam, ceftazidime, cefotaxime (obtained from the urine of a patient with cystitis), Acinetobacter baumannii resistant to meropenem (from an infected wound); Staphylococcus intermedius (from an infected wound caused by a dog bite) resistant to ciprofloxacin, cefuroxime, clindamycin, erythromycin, rifampin, gentamicin, benzylpenicillin, oxacillin.
(§2) This assay was applied to determine the MIC, according to the guidelines of the Clinical and Laboratory Standards Institute, using Mueller Hinton (MH) Broth. We prepared 2x stocks of peptides and serially diluted them in sterile PBS instead of Mueller Hinton Broth, so that the treatment of the bacteria with the peptides was carried out in a medium containing 50% of MH and 50% of PBS, as described. The overnight cultures of each strain were transferred to fresh MH media and further incubated to obtain a mid-logarithmic-growth-phase culture of bacteria. The absorbance of each bacterial suspension was measured at 620 nm, and bacteria were then diluted to approximately 2 × 10^5 CFU/mL. Then, 50 µL of the suspensions were mixed with 50 µL of the peptide dilutions in the wells of a microtiter plate (pre-treated for 1 h at 37 °C with 0.2% bovine serum albumin (BSA) in water, sterilized by filtration, to diminish the non-specific binding of the peptides to the plastic surfaces).

In a further assay the test system is E. coli M15. The class given is cell-based, Escherichia coli. The conditions noted are these: M15, 18 h.
Excerpt: as §1, §2

For assay [1], the system named is Listeria monocytogenes EGD. The class given is cell-based. The settings on record: 18 h.
Excerpt: as §1, §2

Assay [2] relates to Pseudomonas aeruginosa ATCC 27853. Type of assay: cell-based. The conditions noted are these: ATCC 27853, 18 h.
Excerpt: as §1, §2

The test system of assay [3] is Staphylococcus aureus 710A. Type of assay: cell-based. The settings on record: 18 h.
Excerpt: as §1, §2

The test system of a further assay is MRSA ATCC 33591. Type of assay: cell-based, Staphylococcus aureus. The settings on record: ATCC 33591, 18 h.
Excerpt: as §1, §2

For a further assay, the system named is S. aureus ATCC 25923. The class given is cell-based, Staphylococcus aureus. The settings on record: ATCC 25923, 18 h.
Excerpt: as §1, §2

The next assay has as its system S. aureus c.i. Type of assay: cell-based, Staphylococcus aureus. The conditions noted are these: 18 h.
Excerpt: as §1, §2

A further assay relates to P. aeruginosa c.i. The class given is cell-based, Pseudomonas aeruginosa. The conditions noted are these: 18 h.
Excerpt: as §1, §2

In assay [4] the test system is Acinetobacter baumanii c.i. The class given is cell-based, Acinetobacter baumannii. The conditions noted are these: 18 h.
Excerpt: as §1, §2

Assay [5] deals with Staphylococcus intermidius. The class given is cell-based, Staphylococcus intermedius. The settings on record: 18 h.
Excerpt: as §1, §2

In assay [6] the test system is human erythroleukemia K-562 cells. The class given is cell-based. The settings on record: 24 h. How it is done:
The standard MTT ((3-(4,5-Dimethylthiazol-2-yl)-2,5-diphenyltetrazolium bromide) test was used for the examination of the cytotoxic activity of AMPs towards human erithroleukemia cells K-562. The cells were purchased from Biolot (Saint Petersburg, Russia) and were grown in RPMI 1640 medium (Biolot, Saint Petersburg, Russia) supplemented with glutamine and 10% FCS. Before the experiment, the culturing medium was replaced with serum-free RPMI 1640. Serial dilutions of the peptides in RPMI were plated in sterile 96-well microplates, and the target cells were dispensed to the microplates (10^5 cells/well in RPMI 1640). The plates were incubated for 24 h at 37 °C under 5% CO2. Cell-free media and cells incubated without peptides served as controls. Four hours before the incubation ended, MTT in PBS (5 mg/mL) was added to each well. After the incubation was stopped by adding isopropanol/ 0.04 M HCl, the optical density was measured at 540 nm, subtracting the background absorbance at 690 nm. Toxicity was determined by nonlinear regression analysis of the corresponding dose–response curves using the Sigma Plot 11 program to calculate the IC50 values (the concentration of the test substance that reduced the OD540 capacity by 50%).

Assay [7] deals with E. coli ML35p outer membrane. The assay is described as follows: Outer membrane permeabilization assay (nitrocefin hydrolysis). The class given is cell-based, Escherichia coli. The conditions noted are these: peptide at 2 × MIC, 10 mM sodium phosphate buffer, 100 mM NaCl, pH 7.4, 37 °C, 486 nm. How it is done: Figure 5 Permeabilizing effect of arenicin-1 variants on E. coli ML35p outer and cytoplasmic membranes.
The E. coli ML35p outer membrane permeability was assessed by monitoring hydrolysis of the chromogenic β-lactamase substrate nitrocefin (3-(2,4-dinitrostyryl)-(6R,7R)-7-(2-thienyl acetamido)ceph-3-em-4-carboxylic acid) (Calbiochem-Novabiochem, San-Diego, CA, USA) by detection of the hydrolysis product at 486 nm. Inner membrane permeability was monitored by measuring the hydrolysis of o-nitrophenyl-β-D-galactoside (ONPG, Sigma, La Jolla, CA, USA) at 420 nm. The E. coli ML35p strain expresses a plasmid-encoded periplasmic β-lactamase; it constitutively expresses cytoplasmic β-galactosidase and lacks lactose permease. E. coli ML35p was maintained on trypticase soy agar plates containing […] of ampicillin per mL. The bacteria used for antimicrobial testing or membrane permeability assays were picked from a single colony, incubated in 50 mL of sterile Trypticase soy broth for 16 h at 37 °C, washed three times with 10 mM sodium phosphate buffer (pH 7.4), adjusted to an optical density at 620 nm of 1 (2.5 × 10^8 CFU/mL), and kept on ice until use. The assays were performed in 96-well microtiter plates that were monitored every minute with a SpectraMax 250 Microplate Spectrophotometer (Molecular Devices, Sunnyvale, CA, USA) using the SOFTmax PRO software supplied by the manufacturer. […]

In the next assay the test system is Escherichia coli ML35p. Type of assay: cell-based. The settings on record: broth microdilution, 50% Mueller Hinton broth / 50% PBS, 18 h at 37 °C, median of 3–5 experiments in triplicates.
Excerpt: as §1, §2

For assay [8], the system named is set of Gram-negative and Gram-positive bacteria, including drug-resistant clinical isolates. The class given is cell-based. The settings on record: 12 strains; median MICs used; MIC > 16 µM taken as 32 µM. How it is done: To obtain a global assessment of the effect on antimicrobial activity, the geometric mean of the MIC (G-MIC) was calculated, and from this, the overall improvement or impoverishment with respect to arenicin-1. In general, inverting the symmetry or decreasing the charge had detrimental effects.
The overall activity against a set of tested bacterial strains was determined by way of the commonly used geometric mean of measured MIC values. […] At the same time, the geometric mean can still discriminate antimicrobial agents showing minor variations in activity; in other words, it has a better “resolution” than the median MIC (MIC50). Some mathematical basics for choosing the geometric mean for antimicrobial activity comparison are further discussed in the Supplementary Chapter S3.

Residues, ends and D or L forms follow the SMILES beside them.

As to `CC(C)C[C@@H]1NC(=O)[C@H](C(C)C)NC(=O)CNC(=O)[C@H](CCCNC(=N)N)NC(=O)[C@H](C(C)C)NC(=O)[C@H](CCCNC(=N)N)NC(=O)[C@H](C(C)C)NC(=O)[C@H](Cc2ccc(O)cc2)NC(=O)[C@H](C)NC(=O)[C@H](Cc2ccc(O)cc2)NC(=O)[C@H](C(C)C)NC(=O)[C@@H]2CSSC[C@H](NC(=O)[C@H](CCCNC(=N)N)NC(=O)[C@H](CCCNC(=N)N)NC(=O)[C@H](Cc3ccc(O)cc3)NC(=O)[C@H](CCCNC(=N)N)NC(=O)[C@H](C(C)C)NC1=O)C(=O)N[C@@H](Cc1c[nH]c3ccccc13)C(=O)N[C@@H](CCCNC(=N)N)C(=O)N[C@@H](Cc1c[nH]c3ccccc13)C(=O)N2` [ARcycl] (HELM PEPTIDE1{R.W.C.V.Y.A.Y.V.R.V.R.G.V.L.V.R.Y.R.R.C.W}$PEPTIDE1,PEPTIDE1,3:R3-20:R3|PEPTIDE1,PEPTIDE1,1:R1-21:R2$$$V2.0), the “Minimal Inhibitory Concentrations (MIC)” value was found to be 2 µM in the assay on E. coli ATCC 25922; 2 µM in the assay with E. coli M15; 2 µM in [1]; 1 µM in [2]; 2 µM in assay [3]; 4 µM in the assay on MRSA ATCC 33591. Besides, the “Minimal Inhibitory Concentrations (MIC)” value is on record as 2 µM in the assay on S. aureus ATCC 25923; 4 µM in the assay on S. aureus c.i.; 2 µM in the assay on P. aeruginosa c.i.; 4 µM in [4]; 4 µM in assay [5]. Moreover, the IC50 in [6] worked out at 16.2 µM. In addition, the “Capacity to permeabilize the outer membrane with respect to arenicin-1” value in [7] is recorded as “improved capacity to permeabilize the outer membrane”.
Turning to `CC(C)C[C@@H]1NC(=O)[C@H](C(C)C)NC(=O)CNC(=O)[C@H](CCCCN)NC(=O)[C@H](C(C)C)NC(=O)[C@H](CCCCN)NC(=O)[C@H](C(C)C)NC(=O)[C@H](Cc2ccc(O)cc2)NC(=O)[C@H](C)NC(=O)[C@H](Cc2ccc(O)cc2)NC(=O)[C@H](C(C)C)NC(=O)[C@@H](NC(=O)[C@H](Cc2c[nH]c3ccccc23)NC(=O)[C@@H](N)CCCCN)CSSC[C@@H](C(=O)N[C@@H](Cc2c[nH]c3ccccc23)C(=O)O)NC(=O)[C@H](CCCCN)NC(=O)[C@H](CCCCN)NC(=O)[C@H](Cc2ccc(O)cc2)NC(=O)[C@H](CCCCN)NC(=O)[C@H](C(C)C)NC1=O` [AR-K] (HELM PEPTIDE1{K.W.C.V.Y.A.Y.V.K.V.K.G.V.L.V.K.Y.K.K.C.W}$PEPTIDE1,PEPTIDE1,3:R3-20:R3$$$V2.0; N-terminus assumed), the “Minimal Inhibitory Concentrations (MIC)” value in the assay on E. coli ATCC 25922 was 2 µM; in the assay on E. coli M15, 1 µM; with Escherichia coli ML35p, 1 µM; in assay [1] it was 2 µM; in assay [2] it was 1 to 2 µM; in [3] it was 2 µM. The “Minimal Inhibitory Concentrations (MIC)” value in the assay with MRSA ATCC 33591 is 2 µM; in the assay with S. aureus ATCC 25923, 2 µM; with S. aureus c.i. it was 4 µM; in the assay on P. aeruginosa c.i. it was 2 to 4 µM; in [4] it was 1 µM; in [5], 4 µM. Also, the “G-MIC (geometric mean of all determined MICs)” value in [8] stood at 1.9 µM. Moreover, the IC50 in assay [6] is 7.7 µM. Moreover, the “Capacity to permeabilize the outer membrane with respect to arenicin-1” value in assay [7] was “improved capacity to permeabilize the outer membrane”.
